We go through five molecules from PMC11879280, “Antimicrobial activity of peptoids against Metallo-β-lactamase-producing Klebsiella pneumoniae, Acinetobacter baumannii, Pseudomonas aeruginosa, and other WHO priority pathogens, including Candida auris” (Journal of Applied Microbiology, 2025).

Where two headings read alike, the source gives them in different places. Square brackets hold non-standard residues; d marks the D form. Ends that are not written are not given here. Peptide text beside a SMILES is read from it. Nspe(4-Br) = C[C@H](NCC(=O)O)c1ccc(Br)cc1; Nspe = C[C@H](NCC(=O)O)c1ccccc1; Nlys = NCCCCNCC(=O)O

The MIC is the least concentration at which growth counts as inhibited.

For test [1], the system named is ESKAPEE pathogens (all bacteria). The experiment in a line: Geometric mean MIC, therapeutic index and selectivity ratio, all bacteria. Type of test: cell-based. The note with it: for Geometric mean MIC, all bacteria: across the 23 ESKAPEE strains. How it is done: (§1) Briefly, bacteria were suspended in cation-adjusted Mueller–Hinton broth (CAMHB; Oxoid, UK) for antibiotics, or MHB (Oxoid, UK) for peptidomimetics to obtain 5 × 10^5 colony forming unit (CFU) ml^−1. […] Positive controls contained only microbes, and blanks contained only media. Microbial suspensions (100 µl) were added to wells, plates wrapped, and incubated at 37°C, 120 rpm for 16–20 h. After incubation, suspensions were removed, log10 diluted, and plated on Trypticase Soya Agar with phosphatidylcholine and Tween 80 to determine minimum bactericidal or fungicidal concentration (MBC or MFC). […] Geometric mean MIC of the peptoids were calculated to evaluate the broad overview of antimicrobial activity across the pathogens.
(§2) The therapeutic indices (TIs) of the compounds were calculated with the use of following formula: […]

Another test relates to Enterobacteriaceae. The experiment in a line: Geometric mean MIC, therapeutic index and selectivity ratio, Enterobacteriaceae. Format: cell-based. The settings on record: Enterobacteriaceae (E. coli, K. pneumoniae, and E. aerogenes). How it is done: as §1, §2
In the next test the test system is MBL-producing bacteria. The experiment in a line: Geometric mean MIC, therapeutic index and selectivity ratio, MBL-producing bacteria. Type of test: cell-based. How it is done:
as §1
The test was performed as per the manufacturer’s instructions. Briefly, the strips were applied to a lawn culture of bacteria maintained at 1.5 × 10^8 CFU ml^−1 on Mueller–Hinton agar (Oxoid, UK) and incubated for 20 h at 37°C.
as §2

The next test concerns C. auris strains. The settings on record: two C. auris strains. How it is done: as §1, §2
The subject of a further test is En. cloacae 001. The procedure, abridged: (§3)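 Bacteria were suspended at 5 × 10^5 CFU ml^−1 in CAMHB for antibiotics or MHB for peptidomimetics, then incubated at 37°C, 120 rpm for 16–20 h. Suspensions were log10 diluted and plated on Trypticase Soya Agar with phosphatidylcholine and Tween 80 for MBC.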
Another test deals with K. pneumoniae JIE2713. The procedure, abridged: as §3
The next test deals with K. pneumoniae JIE4212. The procedure, abridged:
as §3

For a further test, the system named is P. aeruginosa 33. In short, it runs like this: as §3
The subject of a further test is S. aureus 38. In short, it runs like this:
as §3

Test [2] has as its system MBL phenotypes of A. baumannii. The settings on record: MBL phenotypes of A. baumannii.
Protocol: Briefly, bacteria were suspended in cation-adjusted Mueller–Hinton broth (CAMHB; Oxoid, UK) for antibiotics, or MHB (Oxoid, UK) for peptidomimetics to obtain 5 × 10^5 colony forming unit (CFU) ml^−1. […] Positive controls contained only microbes, and blanks contained only media. Microbial suspensions (100 µl) were added to wells, plates wrapped, and incubated at 37°C, 120 rpm for 16–20 h. […] Geometric mean MIC of the peptoids were calculated to evaluate the broad overview of antimicrobial activity across the pathogens.
Where [3] appears, read: En. cloacae 001, MHB (melimine/Mel4 with 0.2% BSA, 0.01% acetic acid), mean MIC.
[4] abbreviates: K. pneumoniae JIE2713, MHB (melimine/Mel4 with 0.2% BSA, 0.01% acetic acid), mean MIC.
Setting [5] is: K. pneumoniae JIE2713, value in brackets.
The mark [6] stands for this setting: K. pneumoniae JIE4212, MHB (melimine/Mel4 with 0.2% BSA, 0.01% acetic acid), mean MIC.
The mark [7] stands for this setting: K. pneumoniae JIE4212, value in brackets.
Setting [8] is: CBS 10 913, RPMI 1640 with MOPS, 5 × 10^3 CFU ml^−1, ≥90% reduction (≥50% for fluconazole).
Where [9] appears, read: P. aeruginosa 33, MHB (melimine/Mel4 with 0.2% BSA, 0.01% acetic acid), mean MIC.
[10] abbreviates: S. aureus 38, MHB (melimine/Mel4 with 0.2% BSA, 0.01% acetic acid), mean MIC.

`C[C@@H](c1ccccc1)N(CC(N)=O)C(=O)CN(C(=O)CN(CCCCN)C(=O)CN(C(=O)CN(C(=O)CN(CCCCN)C(=O)CN(C(=O)CN(C(=O)CN(CCCCN)C(=O)CN(C(=O)CN(C(=O)CNCCCCN)[C@@H](C)c1ccccc1)[C@@H](C)c1ccccc1)[C@@H](C)c1ccccc1)[C@@H](C)c1ccccc1)[C@@H](C)c1ccccc1)[C@@H](C)c1ccccc1)[C@@H](C)c1ccccc1` [TM1] (H-[Nlys][Nspe][Nspe][Nlys][Nspe][Nspe][Nlys][Nspe][Nspe][Nlys][Nspe][Nspe]-NH2): the “Geometric mean MIC, all bacteria” value in test [1] worked out at 13.0 µg/mL; in test [1] (value in brackets), 7.2 µM. For the same molecule, the “Geometric mean MICE” value with Enterobacteriaceae was determined as 23.7 µg/mL. In addition, the “Geometric mean MICMBL” value in the test with MBL-producing bacteria turned out to be 11.0 µg/mL. Also, in the test on C. auris strains, the “Geometric mean MICCA” value came out at 7.8 µg/mL. The MIC of peptidomimetics is 8.6 µM in the test on En. cloacae 001; 15.6 µg/mL with En. cloacae 001 (setting [3]); 62.5 µg/mL in the test on K. pneumoniae JIE2713 (setting [4]); 34.4 µM in the test with K. pneumoniae JIE2713 (setting [5]); 15.6 µg/mL in the test with K. pneumoniae JIE4212 (setting [6]); 8.6 µM in the test with K. pneumoniae JIE4212 (setting [7]). The MIC of peptidomimetics is 15.6 (8.6) µg ml^−1 with P. aeruginosa 33, 8.6 µmol/L with P. aeruginosa 33 (33) and 7.8 µg/mL in the test on S. aureus 38 (38). For the same molecule, the “MIC against C. auris” value worked out at 15.6 µg/mL in the test on C. auris CBS10913 (setting [8]) and 8.6 µM in the test with C. auris CBS10913 (CBS10913). This molecule registered an MIC in test [2] of at most 7.8 µg/mL.
`C[C@@H](c1ccc(Br)cc1)N(CC(=O)N(CCCCN)CC(=O)N(CC(=O)N(CC(=O)N(CCCCN)CC(N)=O)[C@@H](C)c1ccc(Br)cc1)[C@@H](C)c1ccccc1)C(=O)CN(C(=O)CNCCCCN)[C@@H](C)c1ccccc1` [TM12] (H-[Nlys][Nspe][Nspe(4-Br)][Nlys][Nspe][Nspe(4-Br)][Nlys]-NH2): the “Geometric mean MIC, all bacteria” value in test [1] worked out at 31.2 µg/mL; in [1] (value in brackets), 26.0 µM. The “Fold increase in geometric mean MIC relative to TM4” value in test [1] (bacteria) was found to be 3 fold. In addition, the “Geometric mean MICE” value with Enterobacteriaceae was determined as 47.4 µg/mL. Further, the “Geometric mean MICMBL” value in the test with MBL-producing bacteria is 62.5 µg/mL. The “Geometric mean MICCA” value with C. auris strains came out at 15.6 µg/mL. The MIC of peptidomimetics stood at 13.0 µM with En. cloacae 001; 15.6 µg/mL in the test with En. cloacae 001 (setting [3]); 103.8 µM with K. pneumoniae JIE2713 (JIE2713); 125 µg/mL in the test on K. pneumoniae JIE2713 (setting [4]); 103.8 µM in the test on K. pneumoniae JIE4212 (JIE4212); 125 µg/mL with K. pneumoniae JIE4212 (setting [6]). The MIC of peptidomimetics in the test with P. aeruginosa 33 (33) came to 3.3 µmol/L; with P. aeruginosa 33 (setting [9]) it was 3.9 µg/mL; in the test on S. aureus 38 (38), 6.5 µM; with S. aureus 38 (setting [10]), 7.8 µg/mL. The “MIC against C. auris” value against C. auris CBS10913 (setting [8]) is 62.5 µg/mL; against C. auris CBS10913 (CBS10913), 51.9 µM.
For `C[C@@H](c1ccc(Br)cc1)N(CC(=O)N(CCCCN)CC(=O)N(CC(=O)N(CC(=O)N(CCCCN)CC(N)=O)[C@@H](C)c1ccc(Br)cc1)[C@@H](C)c1ccc(Br)cc1)C(=O)CN(C(=O)CNCCCCN)[C@@H](C)c1ccc(Br)cc1` [TM14] (H-[Nlys][Nspe(4-Br)][Nspe(4-Br)][Nlys][Nspe(4-Br)][Nspe(4-Br)][Nlys]-NH2), the “Geometric mean MIC, all bacteria” value is 19.9 µg/mL in [1] and 14.6 µM in test [1] (value in brackets). For the same molecule, the “Geometric mean MICE” value with Enterobacteriaceae was 31.3 µg/mL. The “Geometric mean MICMBL” value in the test on MBL-producing bacteria was 24.1 µg/mL. For the same molecule, the “Geometric mean MICCA” value with C. auris strains is 7.8 µg/mL. For the same molecule, the MIC of peptidomimetics was 11.5 µM in the test on En. cloacae 001; 15.6 µg/mL with En. cloacae 001 (setting [3]); 5.7 µM in the test with K. pneumoniae JIE2713 (JIE2713); 7.8 µg/mL in the test with K. pneumoniae JIE2713 (setting [4]); 23.0 µM in the test on K. pneumoniae JIE4212 (JIE4212); 31.3 µg/mL with K. pneumoniae JIE4212 (setting [6]). In addition, the MIC of peptidomimetics is 11.5 µmol/L in the test with P. aeruginosa 33 (33), 15.6 µg/mL with P. aeruginosa 33 (setting [9]), 2.9 µM in the test with S. aureus 38 (38) and 3.9 µg/mL in the test on S. aureus 38 (setting [10]). In addition, the “MIC against C. auris” value was 15.6 µg/mL in the test on C. auris CBS10913 (setting [8]) and 11.5 µM against C. auris CBS10913 (CBS10913).
In the case of KNKRKRRRRRRGGRRRR [Mel4], the “Geometric mean MIC, all bacteria” value in test [1] worked out at 149.8 µg/mL; in test [1] (value in brackets), 63.8 µM. Moreover, the “Geometric mean MICE” value in the test on Enterobacteriaceae worked out at 164.9 µg/mL. In addition, in the test on MBL-producing bacteria, the “Geometric mean MICMBL” value stood at 162.1 µg/mL. Moreover, the “Geometric mean MICCA” value in the test with C. auris strains was 22.1 µg/mL. Also, the MIC of peptidomimetics in the test with En. cloacae 001 (setting [3]) was found to be 250 µg/mL; in the test on K. pneumoniae JIE2713 (setting [4]) it was 250 µg/mL; in the test on K. pneumoniae JIE4212 (setting [6]), 250 µg/mL; with P. aeruginosa 33 (setting [9]) it was 62.5 µg/mL; in the test with S. aureus 38 (setting [10]), 62.5 µg/mL. Also, in the test on C. auris CBS10913 (setting [8]), the “MIC against C. auris” value came to 125 µg/mL.
Take “TLISWIKNKRKQRPRVSRRRRRRGGRRRR [Melimine]”: the “Geometric mean MIC, all bacteria” value came out at 132.8 µg/mL in test [1] and 35.1 µM in test [1] (value in brackets). In addition, the “Geometric mean MICE” value in the test on Enterobacteriaceae is 189.5 µg/mL. In addition, the “Geometric mean MICMBL” value in the test with MBL-producing bacteria was found to be 162.1 µg/mL. Moreover, the “Geometric mean MICCA” value in the test with C. auris strains was 22.1 µg/mL. In addition, the MIC of peptidomimetics with En. cloacae 001 (setting [3]) is 125 µg/mL; in the test on En. cloacae 001 (En. cloacae 001, value in brackets), 33.0 µM; in the test with K. pneumoniae JIE2713 (setting [4]), 125 µg/mL; with K. pneumoniae JIE2713 (setting [5]) it was 33.0 µM; in the test on K. pneumoniae JIE4212 (setting [6]) it was 250 µg/mL; in the test on K. pneumoniae JIE4212 (setting [7]) it was 66.0 µM. In addition, the MIC of peptidomimetics in the test on P. aeruginosa 33 (setting [9]) was found to be 62.5 µg/mL; with P. aeruginosa 33 (P. aeruginosa 33, value in brackets) it was 16.5 µmol/L; in the test on S. aureus 38 (setting [10]) it was 31.3 µg/mL; in the test on S. aureus 38 (S. aureus 38, value in brackets), 8.2 µM. Moreover, the “MIC against C. auris” value in the test on C. auris CBS10913 (setting [8]) worked out at 125 µg/mL; in the test with C. auris CBS10913 (CBS 10 913, value in brackets) it was 33.0 µM.
